Results on two compounds are retold here after patent US7576095B2, “Therapeutic agents” (Astrazeneca AB, priority 2005, dated 2009).

Molecules are shown by their SMILES.

Data set [1] can be described thus: Solubility in dimethyl sulfoxide. The class given is physicochemical. The text has this: The compounds of the present invention have improved solubility in organic solvents compared to compounds in the prior art. […] It would be expected that this increase in solubility in organic solvents would lead to improvements in bioavailability and ease of manufacture and formulation.

A further data set deals with T1, CB1 receptor (Homo sapiens, UniProt P21554).
T1 construct: expressed in transfected cells
T1 sequence (P21554 whole entry): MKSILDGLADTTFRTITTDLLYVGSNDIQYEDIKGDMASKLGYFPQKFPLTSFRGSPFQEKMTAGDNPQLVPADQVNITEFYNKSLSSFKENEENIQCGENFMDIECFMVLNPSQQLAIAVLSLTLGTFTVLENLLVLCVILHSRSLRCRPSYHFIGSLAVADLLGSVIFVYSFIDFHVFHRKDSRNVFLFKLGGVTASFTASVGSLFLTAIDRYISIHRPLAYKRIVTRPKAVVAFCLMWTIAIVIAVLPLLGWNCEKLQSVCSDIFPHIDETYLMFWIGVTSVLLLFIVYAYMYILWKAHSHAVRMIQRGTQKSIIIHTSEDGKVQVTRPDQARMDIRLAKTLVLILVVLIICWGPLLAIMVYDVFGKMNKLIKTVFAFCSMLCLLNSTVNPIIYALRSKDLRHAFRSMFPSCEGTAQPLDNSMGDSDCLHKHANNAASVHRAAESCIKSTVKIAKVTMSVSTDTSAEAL
Briefly: [35S]-GTPγS binding assay, membranes of cells stably transfected with the CB1 gene, inhibition of agonist CP55940 (EC80). In kind it is biochemical. The settings on record: half maximal inhibition of GTPγS binding; EC80 concentration of CP55940. As to the method:
Compounds of the present invention are active against the receptor product of the CB1 gene. The affinity of the compounds of the invention for central cannabinoid receptors is demonstrable in methods described in Devane et al , Molecular Pharmacology, 1988, 34,605 or those described in WO01/70700 or EP 656354. Alternatively the assay may be performed as follows.
10 μg of membranes prepared from cells stably transfected with the CB1 gene were suspended in 200 μl of 100 mM NaCl, 5 mM MgCl2, 1 mM EDTA, 50 mM HEPES (pH 7.4), 1 mM DTT, 0.1% BSA and 100 μM GDP. To this was added an EC80 concentration of agonist (CP55940), the required concentration of test compound and 0.1 μCi [^35S]-GTPγS. The reaction was allowed to proceed at 30° C. for 45 min. […] Filters were then covered with scintilant and counted for the amount of [^35S]-GTPγS retained by the filter.
Activity is measured in the absence of all ligands (minimum activity) or in the presence of an EC80 concentration of CP55940 (maximum activity). […] At various concentrations of novel ligand, activity is calculated as a percentage of the maximum activity and plotted. The data are fitted using the equation y=A+((B-A)/1+((C/x) UD)) and the IC50 value determined as the concentration required to give half maximal inhibition of GTPγS binding under the conditions used.

By IC50 is commonly meant the concentration that gives 50% inhibition. A high value points to weaker potency in that assay.

For the compound `Cc1c2c(n(-c3ccc(Cl)cc3Cl)c1-c1ccc(Cl)cc1)CCN(N1CCCCC1)C2=O` [Example 19 of WO03/027114, 2-(4-chlorophenyl)-1-(2,4-dichlorophenyl)-3-methyl-5-(1-piperidinyl)-1,5,6,7-tetrahydro-4H-pyrrolo-[3,2-c]pyridin-4-one], the “solubility in dimethyl sulfoxide” value in data set [1] is listed as “insoluble”.
Compound `Cc1c2c(n(-c3ccccc3Cl)c1-c1ccc(OS(=O)(=O)CCC(F)(F)F)cc1)CCN(N1CCCCC1)C2=O` [Example 1, 3,3,3-Trifluoropropane-1-sulfonic acid 4-[1-(2-chlorophenyl)-3-methyl-4-oxo-5-piperidin-1-yl-4,5,6,7-tetrahydro-1H-pyrrolo[3,2-c]pyridine-2-yl]phenyl ester] showed a concentration for half-maximal inhibition (IC50) on CB1 receptor of 0.98 nM.
